Key:
Format in all cases: in vivo
[1] = system: streptozotocin-induced Type 1 diabetic model in Wistar rats; assay: Lipid profile in streptozotocin-induced diabetic rats; conditions: extracts 40 mg/kg orally, glibenclamide 3 mg/kg orally
Procedure: (§1) The study was conducted in adult male Wistar rats weighing 200-250 gm for a period of 40 days (30 days of treatment and 10 days of induction). The animals were randomly divided into seven groups comprising six each. Diabetes was induced in all the groups except the normal control group by the intra peritoneal administration of streptozotocin at 50 mg/kg. […] The effect of the different fractions was assessed by measuring the fasting blood glucose level, post prandial blood glucose level, serum insulin levels and glycosylated Hb. The anti hyperlipidemic effect was assessed by the estimation of total cholesterol, triglyceride, LDL cholesterol, HDL cholesterol, VLDL, muscle glycogen and liver glycogen. The antioxidant effects of the different extracts were assessed by the measuring TBARS, superoxide dismutase (SOD), catalase, reduced glutathione (GSH) and glutathione peroxidase levels (GPx). TBARS was determined by TBA assay (Ohkawa et al., 1979), SOD was measured using the nitroblue tetrazolium reduction method (Kakkar et al., 1984), Catalase was assayed using the method described by Aebi (1974). GPx was measured as described by Flohe and Gunzler (1984), GSH was measured as per the method of Jollow et al., (1974). Histopathological examination of pancreas was conducted to assess the antidiabetic effect of the different fractions of Costus pictus D. Don.

[2] = system: streptozotocin-induced Type 1 diabetic model in Wistar rats; assay: Pancreatic histopathology in streptozotocin-induced diabetic rats; conditions: for beta cell staining in islet of Langerhans (immune histochemistry, in words): FIG. 13-17
Procedure: as §1

[3] = system: streptozotocin-induced Type 1 diabetic model in Wistar rats; assay: Oral glucose tolerance test (post prandial glucose) in streptozotocin-induced diabetic rats; conditions: OGTT, glucose 2.5 g/kg oral gavage
Procedure: (§2) The study was conducted in adult male Wistar rats weighing 200-250 gm for a period of 40 days (30 days of treatment and 10 days of induction). The animals were randomly divided into seven groups comprising six each. Diabetes was induced in all the groups except the normal control group by the intra peritoneal administration of streptozotocin at 50 mg/kg. After the induction of diabetes, one group was kept as diabetic untreated control and a positive control was maintained in which the animals were treated with standard drug, glibenclamide at 3 mg/kg orally. All the other diabetic induced groups were treated with different extracts at 300 mg/kg orally. The effect of the different fractions was assessed by measuring the fasting blood glucose level, post prandial blood glucose level, serum insulin levels and glycosylated Hb. The anti hyperlipidemic effect was assessed by the estimation of total cholesterol, triglyceride, LDL cholesterol, HDL cholesterol, VLDL, muscle glycogen and liver glycogen. The antioxidant effects of the different extracts were assessed by the measuring TBARS, superoxide dismutase (SOD), catalase, reduced glutathione (GSH) and glutathione peroxidase levels (GPx). TBARS was determined by TBA assay (Ohkawa et al., 1979), SOD was measured using the nitroblue tetrazolium reduction method (Kakkar et al., 1984), Catalase was assayed using the method described by Aebi (1974). GPx was measured as described by Flohe and Gunzler (1984), GSH was measured as per the method of Jollow et al., (1974). Histopathological examination of pancreas was conducted to assess the antidiabetic effect of the different fractions of Costus pictus D. Don.
Oral glucose tolerance test (OGTT) was performed following a glucose challenge of 2.5 g/kg by oral gavage. Blood glucose was recorded at 30 min (PPG1), 60 min (PPG2), 120 min (PPG3) and 240 min (PPG4), after the glucose challenge on day 1, day 15 and day 30 of the study.

[4] = system: streptozotocin-induced Type 1 diabetic model in Wistar rats; assay: Blood glucose level in streptozotocin-induced Type 1 diabetic model; conditions: extracts 40 mg/kg orally, glibenclamide 3 mg/kg orally
Procedure: Evaluation of effect of different fractions of fresh leaves of Costus pictus D. Donon streptozotocin-induced Type 1 diabetic model in Wistar rats.
as §2, with “All the other diabetic induced groups were treated with different extracts at 300 mg/kg orally.” left out
Group 3—Positive control—diabetic animals treated with glibenclamide at 3 mg/kg orally.
Group 4—diabetic animals treated with methanolic extract of fresh leaves of Costus pictus D. Don, the extract has low oxalic acid and/or oxalates content (Sample 2 prepared as per Example 1) at 40 mg/kg orally. […]

[5] = system: streptozotocin-induced Type 1 diabetic model in Wistar rats; assay: Muscle and liver glycogen in streptozotocin-induced diabetic rats; conditions: extracts 40 mg/kg orally, glibenclamide 3 mg/kg orally
Procedure: as §1

COc1ccc(Cl)cc1C(=O)NCCc1ccc(S(=O)(=O)NC(=O)NC2CCCCC2)cc1 [glibenclamide]
HDL ([1]; HDL cholesterol): 52 mg/dL
LDL ([1]; LDL cholesterol): 56 mg/dL
VLDL [1]: 20 mg/dL
TC ([1]; total cholesterol): 128 mg/dL
TG ([1]; triglyceride): 100 mg/dL
beta cell staining in islet of Langerhans (immune histochemistry, in words) ([2]; pancreas of streptozotocin-induced diabetic rats): moderately stained and comparable to group 1
beta cell staining in islet of Langerhans (immune histochemistry, in words) ([2]; pancreas of streptozotocin-induced diabetic rats, listed as Glibenclamide): moderately stained beta cells
mean number of islets ([2]; pancreas of streptozotocin-induced diabetic rats, normal group 36, untreated diabetic group 5): 18.66
appearance of islets in pancreas sections (in words) ([2]; versus untreated diabetic control): less shrunken than the untreated diabetic control group
PPG1. 1 ([3]; blood glucose at 30 min, day 1): 522.8
PPG1. 15 ([3]; blood glucose at 30 min, day 15): 318.3
PPG1. 30 ([3]; blood glucose at 30 min, day 30): 232.1
PPG2. 1 ([3]; blood glucose at 60 min, day 1): 478.4
PPG2. 15 ([3]; blood glucose at 60 min, day 15): 217.4
PPG2. 30 ([3]; blood glucose at 60 min, day 30): 240.4
PPG3. 1 ([3]; blood glucose at 120 min, day 1): 332.1
PPG3. 15 ([3]; blood glucose at 120 min, day 15): 115.3
PPG3. 30 ([3]; blood glucose at 120 min, day 30): 177.3
PPG4. 1 ([3]; blood glucose at 240 min, day 1): 201.9
PPG4. 15 ([3]; blood glucose at 240 min, day 15): 104.8
PPG4. 30 ([3]; blood glucose at 240 min, day 30): 69.8
blood glucose levels, 0th day ([4]; 0th day): 321 mg/dL
blood glucose levels, 15th day ([4]; 15th day): 126 mg/dL
blood glucose levels, 30th day ([4]; 30th day): 71 mg/dL
Liver glycogen [5]: 46 mg/g tissue
Muscle glycogen [5]: 8 mg/g tissue

Source: patent US20180228861A1, “COMPOSITION FOR TREATING DIABETES AND DYSLIPIDEMIA OBTAINED FROM THE EXTRACT OF COSTUS PICTUS D.DON PLANT AND A METHOD OF PREPARING THE SAME” (ARJUNA NATURAL EXTRACTS, LTD., priority 2012, published 2018)
